pIC50: −log10 of the molar value.

The results in this text go back to US20260042755A1, “GPR6 INVERSE AGONISTS” (MapLight Therapeutics, Inc., priority 2022, published 2026).

One experiment concerns the target T1, GPR6 (Homo sapiens, UniProt P46095).
T1 construct: expressed in transfected cells; host or cells: CHO cells
Briefly: GPR6 antagonist functional cAMP assay (LANCE Ultra cAMP TR-FRET, CHO cells stably expressing GPR6). In kind it is cell-based. How it is done: (§1) Example 56. GPR6 and GPR3 Antagonist Functional cAMP Assay
(§2) CHO cells stably expressing GPR6 or GPR3 receptors were dissociated from cell culture flasks and incubated for 2 h at 37° C. in a 10 cm dish in a humidified incubator. Cells were dissociated, counted to have 1e6 cells/mL (4.5e6 cells needed/384-well plate), washed once in starved media, than in D-PBS and finally suspended in assay buffer (Krebs-Ringer Bicarbonate Buffer with 1800 mg/L glucose, without calcium chloride and sodium bicarbonate (Sigma) in the presence of 0.1% BSA and 150 μM of Ro 20-1724 Phosphodiesterase inhibitor).
(§3) Cells in suspension from above were plated in 384-well white Optiplate (PerkinElmer) at 10,000 cells/well/10 μl, briefly centrifuged prior direct addition of compounds ([…]) in 10 mM DMSO using a Tecan D300e Digital Dispenser, final DMSO in each well was normalized to 0.1%. Cells were incubated in the presence of compounds for 45 min at 37° C. in a humidified incubator.
(§4) To measure cAMP levels, LANCE® Ultra cAMP assay (Perkin Elmer), a homogeneous time-resolved fluorescence resonance energy transfer (TR-FRET) immunoassay was used following manufacturer's recommendations. Plates were shaken for 1 h at room temperature before reading on a Tecan InfiniteF200Pro multi-mode plate reader using standard FRET settings (Excitation 340 nm, Emission at 615 nm). FRET values were reported as readings obtained at 665 nm. Data were normalized to DMSO (0.1%) and reference compounds (100%) and fit to a 4-parameter logistical fit to generate antagonist IC50s.

Another experiment concerns the target T2, GPR3 (Homo sapiens, UniProt P46089).
T2 construct: expressed in transfected cells; host or cells: CHO cells
Put plainly: GPR3 antagonist functional cAMP assay (LANCE Ultra cAMP TR-FRET, CHO cells stably expressing GPR3). In kind it is cell-based. How it is done:
as §1, §2, §3, §4

The mark [1] stands for this setting: CHO cells stably expressing GPR6, cAMP assay (Example 24).
The mark [2] stands for this setting: CHO cells stably expressing GPR3, cAMP assay (Example 24).
Setting [3] is: CHO cells stably expressing GPR6, cAMP assay.
[4] abbreviates: CHO cells stably expressing GPR3, cAMP assay.
The mark [5] stands for this setting: procedure as described in Example 24.

T1 sequence (P46095 whole entry): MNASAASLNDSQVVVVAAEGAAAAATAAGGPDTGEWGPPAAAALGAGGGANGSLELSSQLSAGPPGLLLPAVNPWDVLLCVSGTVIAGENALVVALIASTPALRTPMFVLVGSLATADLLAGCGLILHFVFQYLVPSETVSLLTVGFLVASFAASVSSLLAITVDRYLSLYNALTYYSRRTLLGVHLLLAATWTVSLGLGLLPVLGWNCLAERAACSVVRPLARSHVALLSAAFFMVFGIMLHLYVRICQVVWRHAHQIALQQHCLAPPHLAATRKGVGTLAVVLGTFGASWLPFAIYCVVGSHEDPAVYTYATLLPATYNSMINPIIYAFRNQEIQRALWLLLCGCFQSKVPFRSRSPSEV
T2 sequence (P46089 whole entry, species assumed): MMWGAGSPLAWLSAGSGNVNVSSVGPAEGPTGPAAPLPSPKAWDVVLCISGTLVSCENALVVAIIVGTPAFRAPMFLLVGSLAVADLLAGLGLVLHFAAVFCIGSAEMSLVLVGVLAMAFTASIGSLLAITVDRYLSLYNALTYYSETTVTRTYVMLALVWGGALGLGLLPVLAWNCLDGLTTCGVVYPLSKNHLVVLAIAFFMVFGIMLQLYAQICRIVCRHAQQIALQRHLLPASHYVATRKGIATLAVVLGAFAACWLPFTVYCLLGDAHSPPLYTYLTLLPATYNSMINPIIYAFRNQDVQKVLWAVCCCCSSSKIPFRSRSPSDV

On to `CCn1cc(-c2nc3c(nc2N2CCC(Oc4ccc(F)cc4F)CC2)CCN(S(C)(=N)=O)C3)cn1` (centres unmarked) [Compound 485, 2-(4-(2,4-difluorophenoxy)piperidin-1-yl)-3-(1-ethyl-1H-pyrazol-4-yl)-6-(S-methylsulfonimidoyl)-5,6,7,8-tetrahydropyrido[3,4-b]pyrazine], for which the negative-log IC50 (pIC50) on GPR6 (setting [1]) was 6.00 to 7.00; against GPR3 (setting [2]), 4.52 to 6.00.
For `CC(=O)N1CCc2nc(N3CCC(Oc4ccc(F)cc4F)CC3)c(-c3c(C)n[nH]c3C)nc2C1` [Compound 98, 1-{2-[4-(2,4-difluorophenoxy)piperidin-1-yl]-3-(3,5-dimethyl-1H-pyrazol-4-yl)-5H,6H,7H,8H-pyrido[3,4-b]pyrazin-6-yl}ethan-1-one], in that order: no more than 4.52 and no more than 4.52.
For the compound `CC(C)(O)C(C)(O)c1cc2nc(-c3cnn(CF)c3)c(N3CCC(Oc4ccc(F)cc4F)CC3)nc2cn1` (centres unmarked) [Compound 661, 2-{3-[4-(2,4-difluorophenoxy)-1-piperidyl]-2-[1-(fluoromethyl)-4-pyrazolyl]-1,4,6-triaza-7-naphthyl}-3-methyl-2,3-butanediol], the negative-log IC50 (pIC50) against GPR6 (procedure of Example 24) was 6.00 to 7.00; at GPR3 (procedure of Example 24), 4.52 to 6.00.
For `CC(=O)Nc1cc2nc(N3CCC(Oc4ccc(F)cc4F)CC3)c(-c3cnn(C)c3)nc2cn1` [Compound 296, N-{2-[4-(2,4-difluorophenoxy)piperidin-1-yl]-3-(1-methyl-1H-pyrazol-4-yl)pyrido[3,4-b]pyrazin-7-yl}acetamide] the same measures were 4.52 to 6.00 and 4.52 to 6.00.
`CC(C)(O)[C@H](O)c1cc2nc(N3CCC(=Cc4ccc(F)cc4F)CC3)c(-c3cnn(C(F)F)c3)nc2cn1` (single isomer, unassigned) [Compound 779]: the pIC50 at GPR6 (procedure of Example 24) was greater than 7.00; against GPR3 (procedure of Example 24), 4.52 to 6.00.
With `CC(C)(O)C(C)(O)c1cc2nc(N3CCN(Cc4ccc(F)cc4F)CC3)c(-c3cnn(C4CC4)c3)nc2cn1` (centres unmarked) [Compound 605, 2-[3-(1-cyclopropyl-4-pyrazolyl)-2-{4-[(2,4-difluorophenyl)methyl]-1-piperazinyl}-1,4,6-triaza-7-naphthyl]-3-methyl-2,3-butanediol], the pIC50 on GPR6 (setting [3]) was 6.00 to 7.00; on GPR3 (setting [4]) it was 4.52 to 6.00.
With `Cn1cc(-c2nc3cnc([C@@](C)(O)C(C)(C)O)cc3nc2N2CCC(Oc3ccc(F)cc3F)CC2)cn1` (single isomer, unassigned) [Compound 672], the results for the pIC50 on GPR6 (procedure of Example 24) and against GPR3 (procedure of Example 24) were 6.00 to 7.00 and 4.52 to 6.00, respectively.
On to `COCC(=O)N1CCc2nc(N3CCC(Oc4ccc(F)cc4F)CC3)c(-c3cn[nH]c3)nc2C1` [Compound 148, 1-{2-[4-(2,4-difluorophenoxy)piperidin-1-yl]-3-(1H-pyrazol-4-yl)-5H,6H,7H,8H-pyrido[3,4-b]pyrazin-6-yl}-2-methoxyethan-1-one], for which the results for the pIC50 at GPR6 (setting [1]) and at GPR3 (setting [2]) were greater than 7.00 and 4.52 to 6.00, respectively.
`CC(=O)N1CCc2nc(N3CCC(Oc4ccc(F)cc4F)CC3)c(-c3cccc(=O)[nH]3)nc2C1` [Compound 33, 6-(6-acetyl-2-(4-(2,4-difluorophenoxy)piperidin-1-yl)-5,6,7,8-tetrahydropyrido[3,4-b]pyrazin-3-yl)pyridin-2(1H)-one]: the results for the pIC50 against GPR6 (setting [5]) and on GPR3 (setting [5]) were 6.00 to 7.00 and 4.52 to 6.00, respectively.
`CC(C)(O)[C@@](C)(O)c1cc2nc(N3CCN(Cc4ccccc4F)CC3)c(-c3cnn(C4CC4)c3)nc2cn1` (single isomer, unassigned) [Compound 747]: the pIC50 against GPR6 (procedure of Example 24) was 6.00 to 7.00; against GPR3 (procedure of Example 24), 4.52 to 6.00.
For the compound `Cn1cc(-c2nc3cnc(N)cc3nc2N2CCN(Cc3ccc(F)cc3F)CC2)cn1` [Compound 226, 2-{4-[(2,4-difluorophenyl)methyl]piperazin-1-yl}-3-(1-methyl-1H-pyrazol-4-yl)pyrido[3,4-b]pyrazin-7-amine], the pIC50 is greater than 7.00 on GPR6 (setting [1]) and 4.52 to 6.00 against GPR3 (setting [2]).
Take `COC(C)(C)C(=O)N1CCc2nc(N3CCC(Oc4ccc(F)cc4F)CC3)c(-c3cn[nH]c3)nc2C1` [Compound 174, 1-{2-[4-(2,4-difluorophenoxy)piperidin-1-yl]-3-(1H-pyrazol-4-yl)-5H,6H,7H,8H-pyrido[3,4-b]pyrazin-6-yl}-2-methoxy-2-methylpropan-1-one]: the pIC50 is 6.00 to 7.00 on GPR6 (setting [1]) and 4.52 to 6.00 against GPR3 (setting [2]).
For `CC(=O)N1CCc2nc(N3CCC(Oc4ccc(F)cc4F)CC3)c(-c3ccc(F)c(N)n3)nc2C1` [Compound 372, 1-{3-(6-amino-5-fluoro-2-pyridyl)-2-[4-(2,4-difluorophenoxy)-1-piperidyl]-5,6,7,8-tetrahydro-1,4,6-triaza-6-naphthyl}-1-ethanone], the results for the negative logarithm of the IC50 (pIC50) against GPR6 (procedure of Example 24) and against GPR3 (procedure of Example 24) were 6.00 to 7.00 and 4.52 to 6.00, respectively.
For the compound `CC(=O)N1CCc2nc(N3CCC(Oc4ccc(F)cc4F)CC3)c(-c3ncccn3)nc2C1` [Compound 37, 1-{2-[4-(2,4-difluorophenoxy)piperidin-1-yl]-3-(pyrimidin-2-yl)-5H,6H,7H,8H-pyrido[3,4-b]pyrazin-6-yl}ethan-1-one], the pIC50 against GPR6 (setting [5]) was 4.52 to 6.00; against GPR3 (setting [5]), 6.00 to 7.00.
Regarding `Cn1cc(-c2nc3cnccc3nc2N2CCN(CC3CCC(F)(F)CC3)CC2)cn1` [Compound 213, 1-[(4,4-difluorocyclohexyl)methyl]-4-[3-(1-methyl-1H-pyrazol-4-yl)pyrido[3,4-b]pyrazin-2-yl]piperazine], the pIC50 against GPR6 (setting [1]) and against GPR3 (setting [2]) was 4.52 to 6.00 in each case.
For `CC(=O)N1CCc2nc(N3CCN(C(c4ccc(F)cc4F)C(F)(F)F)CC3)c(-c3cnn(C)c3)nc2C1` (centres unmarked) [Compound 731, 1-(2-{4-[1-(2,4-difluorophenyl)-2,2,2-trifluoroethyl]-1-piperazinyl}-3-(1-methyl-4-pyrazolyl)-5,6,7,8-tetrahydro-1,4,6-triaza-6-naphthyl)-1-ethanone], the pIC50 on GPR6 (procedure of Example 24) is 4.52 to 6.00; on GPR3 (procedure of Example 24), no more than 4.52.
Turning to `CCn1cc(-c2nc3cnc([C@@H](O)C(C)(C)O)cc3nc2N2CCN(Cc3ccc(F)cc3F)CC2)cn1` (single isomer, unassigned) [Compound 574], the pIC50 on GPR6 (setting [3]) is 6.00 to 7.00; against GPR3 (setting [4]), 4.52 to 6.00.
As for `CC(=O)N1CCc2nc(N3CCC(C(=O)N(C)Cc4ccc(F)cc4F)C3)c(-c3cnn(C)c3)nc2C1` (centres unmarked) [Compound 387, 1-[6-acetyl-3-(1-methyl-1H-pyrazol-4-yl)-5H,6H,7H,8H-pyrido[3,4-b]pyrazin-2-yl]-N-[(2,4-difluorophenyl)methyl]-N-methylpyrrolidine-3-carboxamide], the pIC50 at GPR6 (setting [1]) and against GPR3 (setting [2]) was 4.52 to 6.00 throughout.
On to `COC(=O)N1CCc2nc(N3CCC(Oc4ccc(F)cc4F)CC3)c(-c3ccc(F)c(N)n3)nc2C1` [Compound 611, 6-{2-[4-(2,4-difluorophenoxy)-1-piperidyl]-6-methoxycarbonyl-5,6,7,8-tetrahydro-1,4,6-triaza-3-naphthyl}-3-fluoro-2-pyridylamine], for which the pIC50 was greater than 7.00 at GPR6 (procedure of Example 24) and 4.52 to 6.00 at GPR3 (procedure of Example 24).
Consider `Cn1cc(-c2nc3cnccc3nc2N2CCN(C(=O)c3ccc(F)cc3F)CC2)cn1` [Compound 128, (2,4-difluorophenyl)(4-(3-(1-methyl-1H-pyrazol-4-yl)pyrido[3,4-b]pyrazin-2-yl)piperazin-1-yl)methanone], for which the pIC50 was 4.52 to 6.00 at GPR6 (setting [1]) and no more than 4.52 against GPR3 (setting [2]).
On to `CC(=O)N1CCc2nc(N3CCC(Oc4ccc(F)cc4F)CC3)c(-c3cnn(CCN(C)C)c3)nc2C1` [Compound 138, 1-{2-[4-(2,4-difluorophenoxy)piperidin-1-yl]-3-{1-[2-(dimethylamino)ethyl]-1H-pyrazol-4-yl}-5H,6H,7H,8H-pyrido[3,4-b]pyrazin-6-yl}ethan-1-one], for which the pIC50 against GPR6 (setting [1]) and on GPR3 (setting [2]) was 4.52 to 6.00 throughout.
With `COc1ccnc(-c2nc3c(nc2N2CCC(Oc4ccc(F)cc4F)CC2)CCN(C(C)=O)C3)c1` [Compound 7, 1-(2-(4-(2,4-difluorophenoxy)piperidin-1-yl)-3-(4-methoxypyridin-2-yl)-7,8-dihydropyrido[3,4-b]pyrazin-6(5H)-yl)ethan-1-one], the pIC50 against GPR6 (setting [5]) is 4.52 to 6.00; against GPR3 (setting [5]), 6.00 to 7.00.
With `CC(=O)N1CCc2nc(N3CCC(C(=O)N(C)C)C3)c(-c3cnn(C)c3)nc2C1` (centres unmarked) [Compound 388, 1-[6-acetyl-3-(1-methyl-1H-pyrazol-4-yl)-5H,6H,7H,8H-pyrido[3,4-b]pyrazin-2-yl]-N,N-dimethylpyrrolidine-3-carboxamide], the pIC50 is no more than 4.52 against GPR6 (setting [1]) and 6.00 to 7.00 on GPR3 (setting [2]).
For `CNC(=O)CN1CCc2nc(N3CCC(Oc4ccc(F)cc4F)CC3)c(-c3cnn(C4CCCCO4)c3)nc2C1` (centres unmarked) [Compound 144, 2-{2-[4-(2,4-difluorophenoxy)piperidin-1-yl]-3-[1-(oxan-2-yl)-1H-pyrazol-4-yl]-5H,6H,7H,8H-pyrido[3,4-b]pyrazin-6-yl}-N-methylacetamide] the same measures were 4.52 to 6.00 and 4.52 to 6.00.
For `CCN1CCc2nc(N3CCC(Oc4ccc(F)cc4F)CC3)c(-c3cn[nH]c3)nc2C1` [Compound 170, 4-(2,4-difluorophenoxy)-1-[6-ethyl-3-(1H-pyrazol-4-yl)-5H,6H,7H,8H-pyrido[3,4-b]pyrazin-2-yl]piperidine], in that order: 6.00 to 7.00 and 4.52 to 6.00.
